Tests used:
[1] = test system: Mouse embryonic fibroblasts (NIH 3T3 cells); test: ATP levels in MEFs (luciferase bioluminescence in live cells; standard ATP assay on lysates); assay type: cell-based; settings: for Total ATP levels in MEFs: MEFs exposed to each of PLLA, PDLA and stereocomplex PLA extracts plus inhibitor; for increased bioenergetic (ATP) levels: amorphous or crystalline PLA extract-treated fibroblasts plus inhibitor, spatiotemporal and dose-dependent
Procedure: Breakdown products of PLA (hereafter “extracts”) were generated in serum-containing media and used after twelve days of incubation in a shaker at 37° C. The in vitro degradation mimics PLA degradation in vivo. Immune cells were maintained in the PLA extracts for twelve days. BMDMs derived from C57BL/6J mice (Jackson Laboratories) of 3-4 months were used. Mouse embryonic fibroblasts (NIH 3T3 cells, hereafter “MEFs”) were stably transfected with a Sleeping Beauty transposon plasmid (pLuBIG) encoding blasticidin resistance linked to eGFP, and luciferase. Bioluminescence of the fibroblasts served as in indicator of ATP levels. Cell viability was measured using the crystal violet staining assay at room temperature. 50 μL media containing cells is incubated with 150 μL of 99.9% methanol for 15 minutes. 100 μL of 0.5% crystal violet (25% methanol) is added for 20 minutes. Each well is emptied and washed twice with 200 μL phosphate buffered saline for 2 minutes. Absorbance (optical density) was acquired at 570 nm using the SpectraMax M3 Spectrophotometer (Molecular Devices) and SoftMax Pro software (ver. 7.0.2).
To exclude the possibility that changing luciferase expression (by transcription or translation) was responsible for observed bioenergetic changes, wild-type cells were lysed after exposure to PLA extract. Controlled amounts of luciferase and D-luciferin were added to the standard ATP assay. By day 12, there was a 1.9-and 2.3-fold increase in ATP levels among cells exposed to crystalline and amorphous PLA extract, respectively (FIG. 2). To exclude the possibility that PLA extracts affect the biochemical reaction underlying bioenergetic measurements, lysed fibroblasts were exposed to D-luciferin, luciferase and control or PLA extract.
ATP levels in live cells were assessed by bioluminescence on the IVIS Spectrum in vivo imaging system (PerkinElmer) after addition of 150 μg/mL D-luciferin (PerkinElmer). For lysed cells, the standard ATP/ADP kits (Sigma-Aldrich) were used according to manufacturer's instructions.

[2] = In-vitro studies indicating effective concentration of 2DG; assay type: cell-based
Procedure: Amorphous PLA was compounded with 2DG at 190° C. for 3 mins in a DSM 15 cc mini-extruder (DSM Xplore) and pelletizer (Leistritz Extrusion Technology). Our in-vitro studies indicate 1 mM 2DG to be an effective concentration. Accordingly, we estimated that 18 mg of 2DG in 10 g of amorphous PLA will approximate effective concentrations after accounting for potential thermal degradation of 2DG, converting mM to w/w values. […] To exclude the effect of melt-blending as a confounder in our studies, amorphous PLA controls were processed under the same thermal conditions to make “reprocessed” amorphous PLA. Pellets from melt-blending were made into 1.75 mm diameter filaments using an extruder (Filabot EX2) at 170° C. with air set at 93. For surgical implantation, amorphous PLA filaments were cut into 1 mm lengths; four biomaterials were subcutaneously implanted on the dorsum (back) of each mouse, with two cranially (2.5 cm apart) and two caudally (2.5 cm apart).

[3] = test system: primary BMDMs; test: Seahorse assays (OCR, ECAR, PER) in primary BMDMs; assay type: cell-based, mouse; settings: for metabolic reprogramming: BMDMs exposed to amorphous or crystalline PLA extract, dose-dependent; for ECAR / OCR / PER: Example 2, BMDMs exposed to PLA extracts of varied stereochemistries plus inhibitor
Description: To determine the metabolic pathways responsible for the observed bioenergetic changes, Seahorse assays were used to measure oxygen consumption rate (OCR), extracellular acidification rate (ECAR) and lactate-linked proton efflux rate (PER) in a customized medium (pH 7.4). Basal measurements of OCR, ECAR, and PER were obtained in real time using the Seahorse XFe-96 Extracellular Flux Analyzer (Agilent Technologies). Prior to running the assay, cell culture medium was washed with and replaced by the Seahorse XF DMEM medium (pH 7.4) supplemented with 25 mM D-glucose and 4 mM glutamine. The Seahorse plates were equilibrated in a non-CO2 incubator for an hour prior to the assay. The Seahorse ATP rate and cell energy phenotype assays were run according to manufacturer's instruction and all reagents for the Seahorse assays were sourced from Agilent Technologies. Wave software (Version 2.6.1) was used to export Seahorse data directly as means±standard deviation (SD).
Seahorse assays measures ECAR as an index of glycolytic flux, OCR as an index of oxidative phosphorylation and PER as an index of monocarboxylate transporter function in live cells; and are used to assess for metabolic reprogramming. Primary BMDMs exposed to amorphous PLA extract were metabolically altered, showing a 2-fold increase in oxidative phosphorylation (OCR; FIG. 10), 3.5-fold increase in glycolytic flux (ECAR; FIG. 11) and 3.5-fold increase in monocarboxylate transporter activity (PER; FIG. 12) in comparison to untreated BMDMs.

[4] = test system: primary macrophages (BMDMs); test: Cytokine and chemokine protein levels in macrophage supernatants (MILLIPLEX multiplex, IL-6 ELISA); assay type: cell-based, mouse; settings: for abnormally increased levels of IL-1β / abnormally increased levels of IL-6 / abnormally increased levels of MCP-1 / abnormally increased levels of TNF-α: macrophages exposed to PLA extract plus inhibitor
Procedure: Cytokine and chemokine levels were measured using a MILLIPLEX MAP mouse magnetic bead multiplex kit (MilliporeSigma) to assess for IL-6, MCP-1, TNF-a, IL-1b, IL-4, IL-10, IFN-1 and 1L-13 protein expression in supernatants. Data was acquired using Luminex 200 (Luminex Corporation) by the xPONENT software (Version 3.1, Luminex Corporation). […] For statistical analyses, those values were expressed as 3.1 pg/mL. Values exceeding the dynamic range of the assay, in accordance with manufacturer's instruction, were excluded. Additionally, IL-6 ELISA kits (RayBiotech) for supernatants were used according to manufacturer's instructions.

[5] = test system: primary BMDMs; test: Crystal violet cell viability / cell number assay in primary BMDMs; assay type: cell-based, mouse; settings: BMDMs treated with amorphous or crystalline PLA extract
Procedure: Breakdown products of PLA (hereafter “extracts”) were generated in serum-containing media and used after twelve days of incubation in a shaker at 37° C. […] Immune cells were maintained in the PLA extracts for twelve days. BMDMs derived from C57BL/6J mice (Jackson Laboratories) of 3-4 months were used. Mouse embryonic fibroblasts (NIH 3T3 cells, hereafter “MEFs”) were stably transfected with a Sleeping Beauty transposon plasmid (pLuBIG) encoding blasticidin resistance linked to eGFP, and luciferase. Bioluminescence of the fibroblasts served as in indicator of ATP levels. Cell viability was measured using the crystal violet staining assay at room temperature. 50 μL media containing cells is incubated with 150 μL of 99.9% methanol for 15 minutes. 100 μL of 0.5% crystal violet (25% methanol) is added for 20 minutes. Each well is emptied and washed twice with 200 μL phosphate buffered saline for 2 minutes. Absorbance (optical density) was acquired at 570 nm using the SpectraMax M3 Spectrophotometer (Molecular Devices) and SoftMax Pro software (ver. 7.0.2).

[6] = macrophages exposed to the PLLA and PDLA extracts plus inhibitor
[7] = BMDMs, prolonged (day 7) exposure to L-lactic acid

## O=CC[C@@H](O)[C@H](O)[C@H](O)CO [2DG, 2-deoxyglucose]
[1]
  Total ATP levels in MEFs: decreased
  increased bioenergetic (ATP) levels: inhibited
[2]
  effective concentration: 1 mM
[3]
  metabolic reprogramming: inhibited
  ECAR: dose-dependent decrease
  OCR: dose-dependent decrease
  PER: dose-dependent decrease
[4]
  abnormally increased levels of IL-1β: modulated
  abnormally increased levels of IL-6: modulated
  abnormally increased levels of MCP-1: modulated
  abnormally increased levels of TNF-α: modulated
[4]; [6]
  IL-10 levels: increased
[5]
  cell viability: selectively reduced

## O=C(C=Cc1cccnc1)c1ccncc1 [3PO, 3-(3-pyridinyl)-1-(4-pyridinyl)-2-propen-1-one]
[1]
  Total ATP levels in MEFs: decreased
  increased bioenergetic (ATP) levels: inhibited
[3]
  metabolic reprogramming: inhibited
  ECAR: dose-dependent decrease
  OCR: dose-dependent decrease
  PER: dose-dependent decrease
[4]; in some experiments
  cytokine values: < 3.2 pg/mL
[4]
  abnormally increased levels of IL-1β: modulated
  abnormally increased levels of IL-6: modulated
  abnormally increased levels of MCP-1: modulated
  abnormally increased levels of TNF-α: modulated
[5]
  cell viability: selectively reduced

## C[C@H](O)C(=O)O [L-lactic acid]
[3]; [7]
  increase in glycolytic flux (ECAR): 2.8 fold
  increase in monocarboxylate transporter function (PER): 2.8 fold
  increase in oxidative phosphorylation (OCR): 2.3 fold
[4]; compared to untreated macrophages
  increase in IL-6 protein expression: 2.3 fold

## NOCC(=O)O [aminooxyacetic acid]
[1]
  Total ATP levels in MEFs: decreased
  increased bioenergetic (ATP) levels: inhibited
[3]
  metabolic reprogramming: inhibited
  ECAR: dose-dependent decrease
  OCR: dose-dependent decrease
  PER: dose-dependent decrease
[4]; amorphous PLA extract plus inhibitor, relative to macrophages exposed to PLA extract
  increase in IL-10 expression: 3.4 fold
[4]; crystalline PLA extract plus inhibitor, relative to macrophages exposed to PLA extract
  IL-10 expression: unchanged
[4]
  abnormally increased levels of IL-1β: modulated
  abnormally increased levels of IL-6: modulated
  abnormally increased levels of MCP-1: modulated
  abnormally increased levels of TNF-α: modulated
[4]; [6]
  IL-10 levels: increased
[4]; macrophages treated with stereocomplex PLA extracts plus inhibitor
  IL-10 levels: further increased
[5]
  cell viability: selectively reduced

From patent US20250135072A1, “COMPOSITIONS COMPRISING A BIOABSORBABLE POLYMER AND METABOLIC INHIBITOR” (Board of Trustees of Michigan State University, priority 2022, published 2025)
